This experiment has as its target T1, HLA-A*11:01 protein (Homo sapiens, UniProt P04439, A114D/D185E/E176A/F33Y/L180Q/S129P/T187R).
T1 construct: biotin (biotinylated)
Nature of the experiment: Bio-Layer Interferometry (BLI) affinity test, Octet R8. The conditions noted are these: Octet R8, SSA sensors, peptides 100-3.125 µM in PBST (PBS+0.02%Tween20+1% DMSO), balance, binding, dissociation 60 s each. On the technique in general: Biolayer interferometry detects binding as a change in optical thickness at a sensor tip.

Where no end group is shown, it is not given here.

For the sequence FSTFKCYGL, the Kd was found to be 5.95 µM.

GLSPTKLNDL registered a Kd of 319 µM.

KCYGLSPTK: the Kd came out at 23 µM.

Consider SQCVNFTTR, for which the KD entry is given as “Non-binding”. Also, the KD result (listed as 13[…]21) is on record as “not detected”.

By Kd is commonly meant the constant that tells how readily two partners part at equilibrium. Read a low Kd as a tighter complex.

For the origin of these results see article PMC9006954, “Computer-Based Immunoinformatic Analysis to Predict Candidate T-Cell Epitopes for SARS-CoV-2 Vaccine Design” (Frontiers in Immunology, 2022).
